Measurements published in ChEMBL document CHEMBL1201862, “PubChem BioAssay data set” (2004).
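96-well plates; 48 h exposure; 5 concentrations. Endpoints by linear interpolation between flanking doses. Not reached: highest tested concentration assigned. GI50 marks 50% less growth.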 Activity calls are given as the source filed them. Cut-off read from the data, not from the text of the source: active = GI50 up to about 1.1 µM and inactive = higher.

Tests used:
Assay in all cases: growth of human tumour cells (NCI), 48 h
SF-539 = system: SF-539
MOLT-4 = system: MOLT-4
Hs-578T = system: Hs-578T
HL-60 = system: HL-60
EKVX = system: EKVX
PC-3 = system: PC-3
NCI/ADR-RES = system: NCI/ADR-RES
786-0 = system: 786-0
OVCAR-5 = system: OVCAR-5
NCI-H226 = system: NCI-H226
UACC-257 = system: UACC-257
IGROV-1 = system: IGROV-1
SW-620 = system: SW-620
MCF7 = system: MCF7
T47D = system: T47D
K562 = system: K562
DU-145 = system: DU-145
Malme-3M = system: Malme-3M
OVCAR-4 = system: OVCAR-4
UO-31 = system: UO-31

SMILES	GI50 (SF-539)	GI50 (MOLT-4)	GI50 (Hs-578T)	GI50 (HL-60)	GI50 (EKVX)	GI50 (PC-3)	GI50 (NCI/ADR-RES)	GI50 (786-0)	GI50 (OVCAR-5)	GI50 (NCI-H226)	GI50 (UACC-257)	GI50 (IGROV-1)	GI50 (SW-620)	GI50 (MCF7)	GI50 (T47D)	GI50 (K562)	GI50 (DU-145)	GI50 (Malme-3M)	GI50 (OVCAR-4)	GI50 (UO-31)
CC(=O)O[C@H]1C#C/C=C\C#CC[C@@H]2C(=O)N(C(=O)OC(C)(C)C)[C@@H]12	1.67 µM (inactive)	0.199 µM (active)	39.6 µM (inactive)	2.45 µM (inactive)	85.7 µM (inactive)	> 67.3 µM (inactive)	15.7 µM (inactive)	9.93 µM (inactive)	> 100 µM (inactive)	24.3 µM (inactive)	28.4 µM (inactive)	3.45 µM (inactive)	48.8 µM (inactive)	2.34 µM (inactive)	32.7 µM (inactive)	25.7 µM (inactive)	19.9 µM (inactive)	7.87 µM (inactive)	> 100 µM (inactive)	2.91 µM (inactive)
CC/C(Cl)=N\OC(=O)Nc1ccc(OC)cc1	4.89 µM (inactive)	2.07 µM (inactive)	14.4 µM (inactive)	1.85 µM (inactive)	5.9 µM (inactive)	15.9 µM (inactive)	6.17 µM (inactive)	1.65 µM (inactive)	6.11 µM (inactive)	12.2 µM (inactive)	15.7 µM (inactive)	6.71 µM (inactive)	2.7 µM (inactive)	5.77 µM (inactive)	5.89 µM (inactive)	1.98 µM (inactive)	17.3 µM (inactive)	1.84 µM (inactive)	16.7 µM (inactive)	7.94 µM (inactive)
CN(C)CCCN1C(=S)N(CCCN(C)C)c2c3cc(O)ccc3nc3c([N+](=O)[O-])ccc1c23	1.29 µM (inactive)	0.0953 µM (active)	5.61 µM (inactive)	3.09 µM (inactive)	4.08 µM (inactive)	2.05 µM (inactive)	6.07 µM (inactive)	1.07 µM (active)	11.8 µM (inactive)	1.94 µM (inactive)	5.45 µM (inactive)	0.7 µM (active)	1.96 µM (inactive)	0.902 µM (active)	1.44 µM (inactive)	2.14 µM (inactive)	2.47 µM (inactive)	6.7 µM (inactive)	2.61 µM (inactive)	2.87 µM (inactive)
O=[N+]([O-])c1ccc(O)c(/C=N/NC(=S)N2CCCCC2)c1	6.82 µM (inactive)	1.34 µM (inactive)	13.8 µM (inactive)	0.282 µM (active)	2.42 µM (inactive)	7.48 µM (inactive)	1.59 µM (inactive)	1.84 µM (inactive)	16 µM (inactive)	1.55 µM (inactive)	7.16 µM (inactive)	1.67 µM (inactive)	3.13 µM (inactive)	4.55 µM (inactive)	6.18 µM (inactive)	4.95 µM (inactive)	3.83 µM (inactive)	1.64 µM (inactive)	6.24 µM (inactive)	0.91 µM (active)
Clc1c(Cl)c(Cl)c2c(nnn2C2CCCO2)c1Cl (stereo unspecified)	30.7 µM (inactive)	23.2 µM (inactive)	25.8 µM (inactive)	5.79 µM (inactive)	22.3 µM (inactive)	39.2 µM (inactive)	31.7 µM (inactive)	45.8 µM (inactive)	41.7 µM (inactive)	34.4 µM (inactive)	35.6 µM (inactive)	34.4 µM (inactive)	–	33.9 µM (inactive)	50.9 µM (inactive)	24.3 µM (inactive)	51.5 µM (inactive)	31.3 µM (inactive)	18.9 µM (inactive)	–
CCOC(=O)C1=C(C)NC(c2ccccc2)=C(C(=O)OCc2ccccc2)C1C#Cc1ccccc1 (stereo unspecified)	> 100 µM (inactive)	> 100 µM (inactive)	> 100 µM (inactive)	> 100 µM (inactive)	> 100 µM (inactive)	> 100 µM (inactive)	> 100 µM (inactive)	> 100 µM (inactive)	> 100 µM (inactive)	> 100 µM (inactive)	> 100 µM (inactive)	79.8 µM (inactive)	> 100 µM (inactive)	> 100 µM (inactive)	> 100 µM (inactive)	> 100 µM (inactive)	> 100 µM (inactive)	> 100 µM (inactive)	–	58.2 µM (inactive)
Cc1ccc(C(=O)Nc2ccc(CP(=O)(O)O)cc2CP(=O)(O)O)cc1NC(=O)Nc1cc(C(=O)Nc2ccc(CP(=O)(O)O)cc2CP(=O)(O)O)ccc1C	> 100 µM (inactive)	–	> 100 µM (inactive)	> 100 µM (inactive)	> 100 µM (inactive)	> 100 µM (inactive)	> 100 µM (inactive)	> 100 µM (inactive)	> 100 µM (inactive)	> 100 µM (inactive)	> 100 µM (inactive)	> 100 µM (inactive)	> 100 µM (inactive)	60.5 µM (inactive)	> 100 µM (inactive)	> 100 µM (inactive)	> 100 µM (inactive)	> 100 µM (inactive)	> 100 µM (inactive)	> 100 µM (inactive)
